Among the data in ChEMBL document CHEMBL6153074, “Discovery of novel dual tubulin and MMPs inhibitors for the treatment of lung cancer and overcoming drug resistance” (Eur J Med Chem, 2025) are IC50 and selectivity ratio values, retold here.

In data set [1] the test system is MDA-MB-231. As to the kind of experiment: Antiproliferative activity against human MDA-MB-231 cells by CCK8 assay.
Data set [2] relates to A549. The experiment in a line: cells. Particulars: Homo sapiens.
Description: Antiproliferative activity against human A549 cells by CCK8 assay
Data set [3] concerns MCF7. The experiment in a line: Antiproliferative activity against human MCF7 cells by CCK8 assay.
The subject of data set [4] is NCI-H460. The experiment in a line: Antiproliferative activity against human NCI-H460 cells by CCK8 assay. (In general: Formazan colour is commonly taken as a measure of viable cells.)
Data set [5] is described as follows: Antiproliferative activity against human L02 cells by CCK8 assay. Type of data set: toxicity, cell-based.
Data set [6] is described as follows: Antiproliferative activity against human MCF-10A cells by CCK8 assay. Type of data set: toxicity, cell-based.
A short description of data set [7]: Selectivity index, ratio of IC50 for antiproliferative activity against human L02 cells to IC50 for antiproliferative activity against human A549 cells. Particulars: L02 cells and A549 cells, read-out: Ratio IC50. Type of data set: toxicity, cell-based.
Data set [8] is described as follows: Selectivity index, ratio of IC50 for antiproliferative activity against human MCF-10A cells to IC50 for antiproliferative activity against human MCF7 cells. The data set is classed as toxicity, cell-based. Particulars: MCF-10A cells and MCF7 cells, read-out: Ratio IC50.

`CCOP(=O)(OCC)C(Nc1ccc(CC(=O)Oc2cc(/C=C/C(=O)c3ccc(OC)c4c3OC(C)(C)C=C4)ccc2OC)cc1)c1cccc([N+](=O)[O-])c1` (stereo not given): the IC50 – broadly, the concentration at which inhibition is half-maximal – in data set [1] came out at 454 nM; in data set [2] it was 206 nM; in data set [3] it was 332 nM; in data set [4], 299 nM.
Take `CCOP(=O)(OCC)C(Nc1ccc(CC(=O)Oc2cc(/C=C/C(=O)c3ccc(OC)c4c3OC(C)(C)C=C4)ccc2OC)cc1)c1ccc(C)cc1` (stereo not given): the half-maximal inhibitory concentration (IC50) in data set [1] amounted to 799 nM; in data set [2] it was 484 nM; in data set [3], 765 nM; in data set [4], 562 nM.
Regarding `CCOP(=O)(OCC)C(Nc1ccc(CC(=O)Oc2cc(/C=C/C(=O)c3cc(OC)c(OC)c(OC)c3)ccc2OC)cc1)c1ccc(C)cc1` (stereo not given), the IC50 turned out to be 668 nM in data set [1], 399 nM in data set [2], 540 nM in data set [3] and 452 nM in data set [4].
In the same order, the values of `CCOP(=O)(OCC)C(Nc1ccc(CC(=O)Oc2cc(/C=C/C(=O)c3ccc(OC)c4c3OC(C)(C)C=C4)ccc2OC)cc1)c1ccc([N+](=O)[O-])cc1` (stereo not given) are 643 nM, 368 nM, 554 nM and 469 nM.
`CCOP(=O)(OCC)C(Nc1ccc(CC(=O)Oc2cc(/C=C/C(=O)c3ccc(OC)c4c3OC(C)(C)C=C4)ccc2OC)cc1)c1cccc(F)c1` (stereo not given): the IC50 in data set [1] stood at 544 nM; in data set [2], 288 nM; in data set [3], 423 nM; in data set [4], 374 nM.
For the compound `COc1cccc2c1C(=O)c1c(O)c3c(c(O)c1C2=O)C[C@@](O)(C(=O)CO)C[C@@H]3O[C@H]1C[C@H](N)[C@H](O)[C@H](C)O1` [DOXORUBICIN], the IC50 in data set [5] was 1320 nM; in data set [6], 973 nM.
Consider `CCOP(=O)(OCC)C(Nc1ccc(CC(=O)Oc2cc(/C=C/C(=O)c3ccc(OC)c4c3OC(C)(C)C=C4)ccc2OC)cc1)c1ccc(Cl)cc1` (stereo not given), for which the 50% inhibitory concentration (IC50) in data set [1] stood at 978 nM; in data set [2] it was 709 nM; in data set [3] it was 808 nM; in data set [4] it was 758 nM.
With `CCOP(=O)(OCC)C(Nc1ccc(CC(=O)Oc2cc(/C=C/C(=O)c3cc(OC)c(OC)c(OC)c3)ccc2OC)cc1)c1ccc(OC)c(OC)c1` (stereo not given), the IC50 in data set [1] turned out to be 893 nM; in data set [2], 683 nM; in data set [3], 806 nM; in data set [4], 739 nM.
In the case of `CCOP(=O)(OCC)C(Nc1ccc(CC(=O)Oc2cc(/C=C/C(=O)c3cc(OC)c(OC)c(OC)c3)ccc2OC)cc1)c1cccc(F)c1` (stereo not given), the IC50 was 492 nM in data set [1], 253 nM in data set [2], 357 nM in data set [3] and 267 nM in data set [4].
As for `CCOP(=O)(OCC)C(Nc1ccc(CC(=O)Oc2cc(/C=C/C(=O)c3ccc(OC)c4c3OC(C)(C)C=C4)ccc2OC)cc1)c1cccc(Cl)c1` (stereo not given), the IC50 in data set [1] stood at 928 nM; in data set [2] it was 656 nM; in data set [3], 732 nM; in data set [4] it was 785 nM.
With `CCOP(=O)(OCC)C(Nc1ccc(CC(=O)Oc2cc(/C=C/C(=O)c3ccc(OC)c4c3OC(C)(C)C=C4)ccc2OC)cc1)c1ccc(OC)c(OC)c1` (stereo not given), the half-maximal inhibitory concentration (IC50) in data set [1] stood at 936 nM; in data set [2], 608 nM; in data set [3], 822 nM; in data set [4], 731 nM.
As to `COc1ccc(/C=C/C(=O)c2ccc(OC)c3c2OC(C)(C)C=C3)cc1` [MILLEPACHINE], the IC50 in data set [1] came out at 4290 nM; in data set [2] it was 5940 nM; in data set [3] it was 5620 nM; in data set [4], 7910 nM.
As to `CCOP(=O)(OCC)C(Nc1ccc(CC(=O)Oc2cc(/C=C/C(=O)c3cc(OC)c(OC)c(OC)c3)ccc2OC)cc1)c1cccc(Cl)c1` (stereo not given), the half-maximal inhibitory concentration (IC50) in data set [1] was 901 nM; in data set [2] it was 649 nM; in data set [3] it was 818 nM; in data set [4], 845 nM.
As to `CCOP(=O)(OCC)C(Nc1ccc(CC(=O)Oc2cc(/C=C/C(=O)c3ccc(OC)c4c3OC(C)(C)C=C4)ccc2OC)cc1)c1ccc(Br)cc1` (stereo not given), the IC50 in data set [1] was determined as 959 nM; in data set [2] it was 741 nM; in data set [3], 829 nM; in data set [4], 780 nM.
Consider `CCOP(=O)(OCC)C(Nc1ccc(CC(=O)Oc2cc(/C=C/C(=O)c3ccc(OC)c4c3OC(C)(C)C=C4)ccc2OC)cc1)c1cc(OC)c(OC)c(OC)c1` (stereo not given), for which the IC50 was 989 nM in data set [1], 769 nM in data set [2], 915 nM in data set [3] and 837 nM in data set [4].
For `COc1ccc(/C=C/C(=O)c2ccc(OC)c3c2OC(C)(C)C=C3)cc1O`, the IC50 in data set [1] amounted to 1040 nM; in data set [2], 1220 nM; in data set [3], 1150 nM; in data set [4], 1070 nM.
With `CCOP(=O)(OCC)C(Nc1ccc(CC(=O)Oc2cc(/C=C/C(=O)c3ccc(OC)c4c3OC(C)(C)C=C4)ccc2OC)cc1)c1ccccc1` (stereo not given), the IC50 is 898 nM in data set [1], 591 nM in data set [2], 797 nM in data set [3] and 698 nM in data set [4].
On to `CCOP(=O)(OCC)C(Nc1ccc(CC(=O)Oc2cc(/C=C/C(=O)c3ccc(OC)c4c3OC(C)(C)C=C4)ccc2OC)cc1)c1ccc(OC)cc1` (stereo not given), for which the IC50 in data set [1] was 934 nM; in data set [2] it was 560 nM; in data set [3], 801 nM; in data set [4], 654 nM.
In the same order, the values of `CCOP(=O)(OCC)C(Nc1ccc(CC(=O)Oc2cc(/C=C/C(=O)c3cc(OC)c(OC)c(OC)c3)ccc2OC)cc1)c1ccc([N+](=O)[O-])cc1` (stereo not given) are 570 nM, 328 nM, 507 nM and 423 nM.
For `CCOP(=O)(OCC)C(Nc1ccc(CC(=O)Oc2cc(/C=C/C(=O)c3cc(OC)c(OC)c(OC)c3)ccc2OC)cc1)c1ccc(OC)cc1` (stereo not given), the IC50 in data set [1] was 834 nM; in data set [2], 545 nM; in data set [3] it was 752 nM; in data set [4], 658 nM.
In the case of `CCOP(=O)(OCC)C(Nc1ccc(CC(=O)Oc2cc(/C=C/C(=O)c3cc(OC)c(OC)c(OC)c3)ccc2OC)cc1)c1ccccc1` (stereo not given), the IC50 was determined as 940 nM in data set [1], 632 nM in data set [2], 828 nM in data set [3] and 704 nM in data set [4].
Take `CCOP(=O)(OCC)C(Nc1ccc(CC(=O)Oc2cc(/C=C/C(=O)c3cc(OC)c(OC)c(OC)c3)ccc2OC)cc1)c1cc(OC)c(OC)c(OC)c1` (stereo not given): the IC50 was 952 nM in data set [1], 712 nM in data set [2], 915 nM in data set [3] and 840 nM in data set [4].
For `CC(=O)O[C@H]1C(=O)[C@@]2(C)[C@H]([C@H](OC(=O)c3ccccc3)[C@]3(O)C[C@H](OC(=O)[C@H](O)[C@@H](NC(=O)c4ccccc4)c4ccccc4)C(C)=C1C3(C)C)[C@]1(OC(C)=O)CO[C@@H]1C[C@@H]2O` [PACLITAXEL], the concentration for half-maximal inhibition (IC50) in data set [1] was determined as 208 nM; in data set [2], 109 nM; in data set [5], 95 nM; in data set [3] it was 122 nM; in data set [4], 155 nM; in data set [6], 114 nM. The values for the selectivity ratio in data set [7] and in data set [8] were 0.87 and 0.93, respectively.
In the case of `CCOP(=O)(OCC)C(Nc1ccc(CC(=O)Oc2cc(/C=C/C(=O)c3ccc(OC)c4c3OC(C)(C)C=C4)ccc2OC)cc1)c1ccc(F)cc1` (stereo not given), the IC50 was found to be 692 nM in data set [1], 392 nM in data set [2], 567 nM in data set [3] and 500 nM in data set [4].
Turning to `CCOP(=O)(OCC)C(Nc1ccc(CC(=O)Oc2cc(/C=C/C(=O)c3cc(OC)c(OC)c(OC)c3)ccc2OC)cc1)c1cccc(C)c1` (stereo not given), the IC50 is 574 nM in data set [1], 309 nM in data set [2], 414 nM in data set [3] and 385 nM in data set [4].
Consider `CCOP(=O)(OCC)C(Nc1ccc(CC(=O)Oc2cc(/C=C/C(=O)c3cc(OC)c(OC)c(OC)c3)ccc2OC)cc1)c1cccc(OC)c1` (stereo not given), for which the IC50 in data set [1] worked out at 721 nM; in data set [2] it was 379 nM; in data set [3], 667 nM; in data set [4], 465 nM.
Take `CCOP(=O)(OCC)C(Nc1ccc(CC(=O)Oc2cc(/C=C/C(=O)c3cc(OC)c(OC)c(OC)c3)ccc2OC)cc1)c1ccc(Br)cc1` (stereo not given): the IC50 in data set [1] came to 939 nM; in data set [2], 609 nM; in data set [3], 872 nM; in data set [4] it was 762 nM.
